target: T1, PIP4K2C (Homo sapiens, UniProt Q8TBX8); test: Enzyme Binding Assay (KINOMEscan): active site-directed competition binding to an immobilized ligand; parameters: purchased Eurofins DiscoverX, San Diego, CA 87-0007-1094; settings: 11-point dose response, duplicate, top concentration 5 micromolar; read-out: Pip4k2c Kd: IC50
T1 sequence (Q8TBX8 1-421): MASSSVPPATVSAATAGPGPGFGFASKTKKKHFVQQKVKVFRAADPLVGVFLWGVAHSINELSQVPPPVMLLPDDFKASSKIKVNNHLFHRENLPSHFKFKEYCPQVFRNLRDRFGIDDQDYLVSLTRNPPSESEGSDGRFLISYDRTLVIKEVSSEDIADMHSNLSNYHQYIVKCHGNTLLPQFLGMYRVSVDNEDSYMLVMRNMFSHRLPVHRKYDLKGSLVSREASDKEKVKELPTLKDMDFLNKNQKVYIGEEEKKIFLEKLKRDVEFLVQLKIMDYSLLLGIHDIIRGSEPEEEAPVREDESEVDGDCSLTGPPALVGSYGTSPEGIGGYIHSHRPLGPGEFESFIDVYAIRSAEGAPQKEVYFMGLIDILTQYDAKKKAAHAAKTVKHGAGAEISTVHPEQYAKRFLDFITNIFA
Method in brief: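 IC50 values come from Hill-equation fits (Levenberg-Marquardt) to 11-point duplicate titrations starting at 5 micromolar. Read-out is competition of compound with an immobilized ligand for the kinase active site.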

Compound | IC50
CC(=O)N[C@H]1CC[C@H](Nc2ncc(F)c(-c3cccc(N4CCCCC4)c3)n2)CC1 [Compound 616, trans-N-(4-((5-fluoro-4-(3-(piperidin-1-yl)phenyl)pyrimidin-2-yl)amino)cyclohexyl)acetamide] | < 500 nM
NC(=O)[C@H]1CC[C@H](Nc2ncc(F)c(-c3cccc(-n4ccccc4=O)n3)n2)CC1 [Compound 617, trans-4-((5-fluoro-4-(2-oxo-2H-[1,2′-bipyridin]-6′-yl)pyrimidin-2-yl)amino)cyclohexane-1-carboxamide] | < 500 nM
NC(=O)[C@H]1CC[C@H](Nc2ncc(F)c(-c3cccc(C4CC4)c3)n2)CC1 [Compound 618, trans-(1r,4r)-4-((4-(3-cyclopropylphenyl)-5-fluoropyrimidin-2-yl)amino)cyclohexane-1-carboxamide] | < 500 nM
CC(=O)N[C@H]1CC[C@H](Nc2ncc(F)c(-c3cccc(C4CC4)c3)n2)CC1 [Compound 619, trans-N-((1r,4r)-4-((4-(3-cyclopropylphenyl)-5-fluoropyrimidin-2-yl)amino)cyclohexyl)acetamide] | < 500 nM
NC(=O)[C@H]1CC[C@H](Nc2ncc(F)c(-c3cccc(C4(O)CCC4)n3)n2)CC1 [Compound 620, trans-4-((5-fluoro-4-(6-(1-hydroxycyclobutyl)pyridin-2-yl)pyrimidin-2-yl)amino)cyclohexane-1-carboxamide] | < 500 nM
NC(=O)[C@H]1CC[C@H](Nc2ncc(F)c(-c3cccc(N4CCCOC4=O)n3)n2)CC1 [Compound 621, trans-4-((5-fluoro-4-(6-(2-oxo-1,3-oxazinan-3-yl)pyridin-2-yl)pyrimidin-2-yl)amino)cyclohexane-1-carboxamide] | < 500 nM
NC(=O)[C@H]1CC[C@H](Nc2ncc(F)c(-c3ccnc(N4CCCOC4=O)c3)n2)CC1 [Compound 622, trans-4-[[5-fluoro-4-[2-(2-oxo-1,3-oxazinan-3-yl)-4-pyridyl]pyrimidin-2-yl]amino]cyclohexanecarboxamide] | < 500 nM
NC(=O)[C@H]1CC[C@H](Nc2ncc(F)c(-c3ccnc(-n4ccccc4=O)c3)n2)CC1 [Compound 623, trans-4-((5-fluoro-4-(2-oxo-2H-[1,2′-bipyridin]-4′-yl)pyrimidin-2-yl)amino)cyclohexane-1-carboxamide] | < 500 nM
CC(=O)N[C@H]1CC[C@H](Nc2ncc(F)c(-c3cccc(N4CCCOC4=O)n3)n2)CC1 [Compound 624, N-(trans-4-((5-fluoro-4-(6-(2-oxo-1,3-oxazinan-3-yl)pyridin-2-yl)pyrimidin-2-yl)amino)cyclohexyl)acetamide] | < 500 nM
CC(=O)N[C@H]1CC[C@H](Nc2ncc(F)c(-c3cccc(N4CCCCC4=O)n3)n2)CC1 [Compound 625, N-(trans-4-((5-fluoro-4-(6-(2-oxopiperidin-1-yl)pyridin-2-yl)pyrimidin-2-yl)amino)cyclohexyl) acetamide] | < 500 nM
CC(=O)N[C@H]1CC[C@H](Nc2ncc(F)c(-c3cccc(-n4ccccc4=O)n3)n2)CC1 [Compound 626, trans-N-(4-((5-fluoro-4-(2-oxo-2H-[1,2′-bipyridin]-6′-yl)pyrimidin-2-yl)amino)cyclohexyl)acetamide] | < 500 nM
CC(=O)N1CCC(Nc2ncc(F)c(-c3ccnc(N4CCOCC4=O)c3)n2)CC1 [Compound 628, 4-(4-(2-((1-acetylpiperidin-4-yl)amino)-5-fluoropyrimidin-4-yl)pyridin-2-yl)morpholin-3-one] | < 500 nM
CC(=O)N1CCC(Nc2ncc(F)c(-c3cccc(N4CCOCC4=O)n3)n2)CC1 [Compound 630, 4-(6-(2-((1-acetylpiperidin-4-yl)amino)-5-fluoropyrimidin-4-yl)pyridin-2-yl)morpholin-3-one] | < 500 nM
CC(=O)N[C@H]1CC[C@H](Nc2ncc(F)c(-c3cccc(C4CCC(=O)NC4)c3)n2)CC1 (stereo partly drawn) [Compound 631, N-(trans-4-((5-fluoro-4-(3-(6-oxopiperidin-3-yl)phenyl)pyrimidin-2-yl)amino)cyclohexyl)acetamide] | < 500 nM

Continued, values first:

IC50 | Compound
< 500 nM | NC(=O)[C@H]1CC[C@H](Nc2ncc(F)c(-c3cccc(N4CCOCC4=O)n3)n2)CC1 [Compound 271, trans-4-((5-fluoro-4-(6-(3-oxomorpholino)pyridin-2-yl)pyrimidin-2-yl)amino)cyclohexane-1-carboxamide]
< 500 nM | CC(=O)N[C@H]1CC[C@H](Nc2ncc(F)c(-c3ccnc(N4CCOCC4=O)c3)n2)CC1 [Compound 272, trans-N-(4-((5-fluoro-4-(2-(3-oxomorpholino)pyridin-4-yl)pyrimidin-2-yl)amino)cyclohexyl)acetamide]
< 500 nM | NC(=O)[C@H]1CC[C@H](Nc2ncc(F)c(-c3ccnc(N4CCOCC4=O)c3)n2)CC1 [Compound 273, trans-4-((5-fluoro-4-(2-(3-oxomorpholino)pyridin-4-yl)pyrimidin-2-yl)amino)cyclohexane-1-carboxamide]
< 500 nM | NC(=O)[C@H]1CC[C@H](Nc2ncc(F)c(-c3cccc(N4CCCCC4=O)n3)n2)CC1 [Compound 274, trans-4-((5-fluoro-4-(6-(2-oxopiperidin-1-yl)pyridin-2-yl)pyrimidin-2-yl)amino)cyclohexane-1-carboxamide]
< 500 nM | CC(=O)N1CCC(Nc2ncc(F)c(-c3cccc(N4CCOCC4)c3)n2)CC1 [Compound 606, 1-[4-[[5-fluoro-4-(3-morpholinophenyl)pyrimidin-2-yl]amino]-1-piperidyl]ethanone]
< 500 nM | NC(=O)[C@H]1CC[C@H](Nc2ncc(F)c(-c3cccc(N4CCOCC4)c3)n2)CC1 [Compound 607, trans-4-((5-fluoro-4-(3-morpholinophenyl)pyrimidin-2-yl)amino) cyclohexane-1-carboxamide]
< 500 nM | CC(=O)N[C@H]1CC[C@H](Nc2ncc(F)c(-c3cccc(N4CCOCC4)c3)n2)CC1 [Compound 608, trans-N-(4-((5-fluoro-4-(3-morpholinophenyl)pyrimidin-2-yl)amino)cyclohexyl)acetamide]
< 500 nM | CC(=O)N[C@H]1CC[C@H](Nc2ncc(F)c(-c3cccc(-c4ccccc4)c3)n2)CC1 [Compound 609, trans-N-(4-((4-([1,1′-biphenyl]-3-yl)-5-fluoropyrimidin-2-yl)amino)cyclohexyl)acetamide]
< 500 nM | NC(=O)[C@H]1CC[C@H](Nc2ncc(F)c(-c3cccc(-c4ccccc4)c3)n2)CC1 [Compound 610, trans-4-((4-([1,1′-biphenyl]-3-yl)-5-fluoropyrimidin-2-yl)amino)cyclohexane-1-carboxamide]
< 500 nM | CC(=O)N1CCC(Nc2ncc(F)c(-c3cccc(-c4ccccc4)c3)n2)CC1 [Compound 611, 1-(4-((4-([1,1′-biphenyl]-3-yl)-5-fluoropyrimidin-2-yl)amino)piperidin-1-yl)ethan-1-one]
< 500 nM | NC(=O)[C@@H]1CCC[C@H](Nc2ncc(F)c(-c3cccc(-c4ccccc4)c3)n2)C1 [Compound 612, (1R,3S)-3-((4-([1,1′-biphenyl]-3-yl)-5-fluoropyrimidin-2-yl)amino) cyclohexane-1-carboxamide]
< 500 nM | CC(=O)N1CC[C@H](Nc2ncc(F)c(-c3cccc(-n4ccccc4=O)c3)n2)C1 [Compound 613, (S)-1-(3-(2-((1-acetylpyrrolidin-3-yl)amino)-5-fluoropyrimidin-4-yl)phenyl)pyridin-2(1H)-one]
< 500 nM | CC(=O)N1CCC(Nc2ncc(F)c(-c3cccc(-n4ccccc4=O)c3)n2)CC1 [Compound 614, 1-(3-(2-((1-acetylpiperidin-4-yl)amino)-5-fluoropyrimidin-4-yl)phenyl)pyridin-2(1H)-one]
< 500 nM | NC(=O)[C@H]1CC[C@H](Nc2ncc(F)c(-c3cccc(N4CCCCC4)c3)n2)CC1 [Compound 615, trans-4-((5-fluoro-4-(3-(piperidin-1-yl)phenyl)pyrimidin-2-yl)amino)cyclohexane-1-carboxamide]

Source: US20260355196A1, “INHIBITORS AND DEGRADERS OF PIP4K PROTEIN” (Larkspur Biosciences, Inc., priority 2023, published 2026)
